Measured values reported in US9617602B2, “Methods and compositions for determining resistance to androgen receptor therapy” (Aragon Pharmaceuticals, Inc., priority 2012, dated 2017).
Where two headings read alike, the source gives them in different places.

Experiments:
[1] = tested on: prostate specific antigen (PSA); format: in vivo
Description: Patients with mCRPC were assigned sequentially to dose levels in cohorts of 3 to 6 patients per dose level using standard 3×3 dose-escalation criteria.
Eligible patients who signed informed consent documents were initially enrolled into a dose escalation cohort where they will receive a single oral dose of ARN-509 followed by a one-week observation period (PK Week). Continuous dosing began on Cycle 1 Day 1 assuming no unacceptable toxicities were observed.
A minimum of 3 subjects at each dose level were monitored for a DLT through day 28 of Cycle 1.
The starting dose was 30 mg/day, with escalations to 60 mg, 90 mg, 120 mg, 180 mg, 240 mg, 300 mg, 390 mg, and 480 mg daily. It was anticipated that these dose levels span the anticipated pharmacologically active dose range and be within the safety margin indicated by the preclinical toxicology results.
Following the selection of 240 mg as the RP2D, additional eligible patients were enrolled in the Phase 2 portion of the study, consisting of 3 concurrent expansion cohorts at the MTD and/or RP2D to gather additional safety information and provide an initial signal of anti-tumor activity. The three expansion cohorts included:
It was expected that each patient with mCRPC would receive at least 3 cycles (12 weeks) of continuous treatment and each patient with non-metastatic CRPC will receive at least 4 cycles (16 weeks) of continuous treatment. Treatment was discontinued at any time for protocol-defined disease progression or unacceptable toxicity. Tumor evaluations were performed every 3 cycles (12 weeks) for patients with mCRPC and every 4 cycles (16 weeks) for patients with non-metastatic CRPC. Safety was assessed from the first dose through at least four weeks after the last dose or until resolution of drug-related toxicity, or when toxicity is deemed irreversible, whichever was longer.

LNCaP cells = assay: Proliferation assay (CellTiter-Glo), agonist and antagonist mode; format: cell-based, human
LNCaP/AR(cs) cells = assay: as above; format: cell-based, human
[2] = tested on: Class 2 resistant cell lines; assay: Transcriptional reporter assay (probasin-luciferase); format: cell-based, human; details: for Agonist Transcriptional Reporter Assay (% Max Activity) / Antagonist Transcriptional Reporter Assay (% Max Activity): Class 2; for Agonist Transcriptional Reporter Assay (% Max Activity): [Antagonists] = 50 μM; for Antagonist Transcriptional Reporter Assay (% Max Activity): [Antagonists] = 50 μM in presence of R1881
Description: With the exception of the LNCaP/AR(cs)-Luc cells that contain an integrated androgen responsive reporter, cells were transiently transfected using Lipofectin® (Life Technologies) according to the manufacturer's protocol. […] Following transfection, the cells were incubated for 4 hours.
Following 48 hour incubation the medium was removed and the cells were lysed in 40 μL of lysis buffer (25 mM Tris Phosphate, 2 mM CDTA, 10% Glycerol, 0.5% Triton X-100, 2 mM DTT).

[3] = tested on: Class 1 ARN-509- and MDV3100-resistant cell lines; assay: Proliferation assay (CellTiter-Glo), agonist and antagonist mode; format: cell-based, human; details: for Ligand independent growth of Class 1 cells in presence of compound: absence of added androgens
[4] = tested on: LNCaP/AR(cs) xenograft tumors; assay: Tumor xenograft in castrated SHO male mice; format: in vivo
[5] = tested on: Class 1 resistant cell lines; assay: Endogenous gene transcriptional assay (real-time PCR of androgen responsive genes); format: cell-based, human
Description: (§1) Total RNA was isolated using the Aurum™ total RNA isolation kit (BIO-RAD, Hercules, Calif.). RNA (1 μg) was reverse transcribed using the iScript cDNA synthesis kit (BIO-RAD, Hercules, Calif.) to produce cDNA. Real-time PCR was performed using the Applied Biosystems 7900HT instrument and SYBR Green PCR Master Mix (Applied Biosystems, Foster City, Calif.). PCR reactions were performed in 6 μL according to the manufacturer's protocol and a thermocycle protocol of 95° C. for 10 minutes followed by 40 cycles of 95° C. for 15 seconds and 58° C. for 1 minute. Androgen responsive gene (PSA, SLUG, TMPRSS2, STEAP4, FKBP5, ORM1, NOV, FASN, NKX3.1, AMIGO2, BDNF, CAMK2N1, HPGD, NCAPD3, PLD1) expression was normalized to GAPDH expression and expressed relative to vehicle treatment of the parental cell line.

[6] = tested on: Class 2 resistant cell lines; assay: as above; format: cell-based, human
Description: as §1

[7] = Homo sapiens, 168 h, read-out: Antagonist Proliferation Assay (% Viability)

For `CNC(=O)c1ccc(N2C(=S)N(c3cnc(C#N)c(C(F)(F)F)c3)C(=O)C23CCC3)cc1F` [ARN-509], the “PSA, Patient 10” value ([1]; Cycle 4) was 102 % of TO, the “PSA, Patient 13” value ([1]; Cycle 4) was 16.2 % of baseline and the “PSA decline from baseline, Patient 7” value ([1]; Cycle 4, 8 and 10) was greater than 90%. For the same molecule, the “PSA below study start, Patient 13” value ([1]; Cycle 11 and 12) was greater than 60%, the “12 week PSA Response” value ([1]; Patient 1) was 30.49 and the “PSA at Time of BEAMing Analysis [Percent of Baseline]” value (“PSA at Time … [Percent of Baseline]” below) ([1]; Patient 1, Treatment Cycle 19) was 195.4% of Baseline. For the same molecule, the “12 week PSA Response” value ([1]; Patient 2) was −61.8, the “PSA at Time … [Percent of Baseline]” value ([1]; Patient 2, Treatment Cycle 10) was 337.08% of Baseline and the “12 week PSA Response” value ([1]; Patient 3) was 22.7. For the same molecule, the “PSA at Time … [Percent of Baseline]” value ([1]; Patient 3, Treatment Cycle 4) was 122% of Baseline, the “12 week PSA Response” value ([1]; Patient 4) was 12.4 and the “PSA at Time … [Percent of Baseline]” value ([1]; Patient 4, Treatment Cycle 5) was 134% of Baseline. The “12 week PSA Response” value ([1]; Patient 5) was −70.65, the “PSA at Time … [Percent of Baseline]” value ([1]; Patient 5, Treatment Cycle 8) was 16% of Baseline and the “12 week PSA Response” value ([1]; Patient 6) was −90.02. For the same molecule, the “PSA at Time … [Percent of Baseline]” value ([1]; Patient 6, Treatment Cycle 10) was 84.6% of Baseline, the “12 week PSA Response” value ([1]; Patient 7) was −98.6 and the “PSA [Percent of Day 0]” value ([1]; Patient 7, Treatment Cycle 4) was 1.4% of Day 0. For the same molecule, the “PSA [Percent of Day 0]” value ([1]; Patient 7, Treatment Cycle 8) was 3.3% of Day 0, the “PSA [Percent of Day 0]” value ([1]; Patient 7, Treatment Cycle 10) was 5.6% of Day 0 and the “PSA [Percent of Day 0]” value ([1]; Patient 7, Treatment Cycle 15) was 41.2% of Day 0. The “PSA [Percent of Day 0]” value ([1]; Patient 7, Treatment Cycle 19) was 97.2% of Day 0, the “PSA [Percent of Day 0]” value ([1]; Patient 7, Treatment Cycle 22) was 281.0% of Day 0 and the “PSA at Time … [Percent of Baseline]” value ([1]; Patient 7, Treatment Cycle 22) was 281% of Baseline. The “12 week PSA Response” value ([1]; Patient 8) was −62.2, the “PSA at Time … [Percent of Baseline]” value ([1]; Patient 8, Treatment Cycle 16) was 10.2% of Baseline and the “12 week PSA Response” value ([1]; Patient 9) was 26.38. The “PSA at Time … [Percent of Baseline]” value ([1]; Patient 9, Treatment Cycle 7) was 185% of Baseline, the “12 week PSA Response” value ([1]; Patient 10) was 2.33 and the “PSA [Percent of Day 0]” value ([1]; Patient 10, Treatment Cycle 4) was 102% of Day 0. The “PSA [Percent of Day 0]” value ([1]; Patient 10, Treatment Cycle 7) was 245% of Day 0, the “PSA at Time … [Percent of Baseline]” value ([1]; Patient 10, Treatment Cycle 7) was 245% of Baseline and the “12 week PSA Response” value ([1]; Patient 11) was −49.76. For the same molecule, the “PSA at Time … [Percent of Baseline]” value ([1]; Patient 11, Treatment Cycle 8) was 143.88% of Baseline, the “12 week PSA Response” value ([1]; Patient 12) was −56.65 and the “PSA at Time … [Percent of Baseline]” value ([1]; Patient 12, Treatment Cycle 7) was 99.47% of Baseline. The “12 week PSA Response” value ([1]; Patient 13) was −83.79, the “PSA [Percent of Day 0]” value ([1]; Patient 13, Treatment Cycle 4) was 16.2% of Day 0 and the “PSA [Percent of Day 0]” value ([1]; Patient 13, Treatment Cycle 11) was 31.7% of Day 0. For the same molecule, the “PSA at Time … [Percent of Baseline]” value ([1]; Patient 13, Treatment Cycle 11) was 31.7% of Baseline, the “PSA [Percent of Day 0]” value ([1]; Patient 13, Treatment Cycle 12) was 39.5% of Day 0 and the “12 week PSA Response” value ([1]; Patient 14) was −43.21. For the same molecule, the “PSA at Time … [Percent of Baseline]” value ([1]; Patient 14, Treatment Cycle 11) was 150.5% of Baseline, the “12 week PSA Response” value ([1]; Patient 15) was 164.14 and the “PSA at Time … [Percent of Baseline]” value ([1]; Patient 15, Treatment Cycle 3) was 220% of Baseline. The “12 week PSA Response” value ([1]; Patient 16) was 89.09, the “PSA at Time … [Percent of Baseline]” value ([1]; Patient 16, Treatment Cycle 4) was 189% of Baseline and the “12 week PSA Response” value ([1]; Patient 17) was −45.86. For the same molecule, the “PSA at Time … [Percent of Baseline]” value ([1]; Patient 17, Treatment Cycle 4) was 54.14% of Baseline, the “12 week PSA Response” value ([1]; Patient 18) was −95.65 and the “PSA at Time … [Percent of Baseline]” value ([1]; Patient 18, Treatment Cycle 6) was 7.34% of Baseline. For the same molecule, the “12 week PSA Response” value ([1]; Patient 19) was −71.19, the “PSA at Time … [Percent of Baseline]” value ([1]; Patient 19, Treatment Cycle 11) was 196.86% of Baseline and the “12 week PSA Response” value ([1]; Patient 20) was −30.88. For the same molecule, the “PSA at Time … [Percent of Baseline]” value ([1]; Patient 20, Treatment Cycle 21) was 89.3% of Baseline, the “12 week PSA Response” value ([1]; Patient 21) was −74.43 and the “PSA at Time … [Percent of Baseline]” value ([1]; Patient 21, Treatment Cycle 10) was 46.91% of Baseline. For the same molecule, the “12 week PSA Response” value ([1]; Patient 22) was −82.7, the “PSA at Time … [Percent of Baseline]” value ([1]; Patient 22, Treatment Cycle 25) was 0.19% of Baseline and the “12 week PSA Response” value ([1]; Patient 23) was 97.78. For the same molecule, the “PSA at Time … [Percent of Baseline]” value ([1]; Patient 23, Treatment Cycle 8) was 222.46% of Baseline, the “12 week PSA Response” value ([1]; Patient 24) was −74.86 and the “PSA at Time … [Percent of Baseline]” value ([1]; Patient 24, Treatment Cycle 25) was 4.89% of Baseline. For the same molecule, the “12 week PSA Response” value ([1]; Patient 25) was −30.07, the “PSA at Time … [Percent of Baseline]” value ([1]; Patient 25, Treatment Cycle 12) was 161% of Baseline and the “12 week PSA Response” value ([1]; Patient 26) was 96.51. For the same molecule, the “PSA at Time … [Percent of Baseline]” value ([1]; Patient 26, Treatment Cycle 5) was 214.85% of Baseline, the “12 week PSA Response” value ([1]; Patient 27) was −0.89 and the “PSA at Time … [Percent of Baseline]” value ([1]; Patient 27, Treatment Cycle 13) was 20.69% of Baseline. For the same molecule, the “12 week PSA Response” value ([1]; Patient 28) was −33.59, the “PSA at Time … [Percent of Baseline]” value ([1]; Patient 28, Treatment Cycle 10) was 126% of Baseline and the “12 week PSA Response” value ([1]; Patient 29) was −58.44. The “PSA at Time … [Percent of Baseline]” value ([1]; Patient 29, Treatment Cycle 13) was 105% of Baseline, the “Patients exhibiting a 12 week ≧50% decline in PSA compared to baseline” value ([1]; across all dose groups) was 14/30 and the “Recommended Phase 2 dose (RP2D)” value ([1]; human, in vivo, po, 28 days) was 240 mg. The viability at 0.0001 µM (LNCaP cells; [7]) was less than 30%, the “Agonist Proliferation Assay (% Viability)” value (LNCaP cells; [Antagonists] = 10 μM, 7 days) was “+ (‘+’ = <30)” and the viability at 0.0001 µM (LNCaP/AR(cs) cells; Homo sapiens, LNCaP/AR, 168 h, read-out: Antagonist Proliferation Assay (% Viability)) was less than 30%. The “Agonist Proliferation Assay (% Viability)” value (LNCaP/AR(cs) cells; LNCaP/AR(cs), [Antagonists] = 10 μM, 7 days) was “+ (‘+’ = <30)”, the “Agonist activity in probasin-luciferase reporter assay, Class 2 resistant cells” value [2] was “no agonist activity” and the “Agonist Transcriptional Reporter Assay (% Max Activity)” value [2] was “+ (‘+’ = <5)”. The “Antagonist Transcriptional Reporter Assay (% Max Activity)” value [2] was “+ (‘+’ = <5)”, the “Effect on growth inhibitory activity of R1881 in Class 1 cells” value [3] was “antagonized” and the viability at 0.0001 µM [3, 7] was greater than 30%. The “Ligand independent growth of Class 1 cells in presence of compound” value [3] was “unaltered”, the “Effect on LNCaP/AR(cs) xenograft tumors (Example 1)” value ([4]; 30 mg/kg QD orally, castrated SHO mice, initial response) was “induced tumor regression” and the “Anti-tumor activity in the LNCaP/AR(cs) model (Example 14)” value ([4]; 30 mg/kg/day oral gavage, castrate male mice) was “robust anti-tumor activity”.

`CNC(=O)c1ccc(N2C(=S)N(c3ccc(C#N)c(C(F)(F)F)c3)C(=O)C2(C)C)cc1F` [Enzalutamide, enzalutamide] was tested, and the “Transcriptional activity on endogenous androgen-responsive genes, Class 1 resistant cells” value [5] was “weak transcriptional agonist”, the “Agonist activity in probasin-luciferase reporter assay, Class 2 resistant cells” value [2] was “weak partial agonist” and the “Agonist Transcriptional Reporter Assay (% Max Activity)” value [2] was “++ (‘++’ = >5)”. For the same molecule, the “Antagonist Transcriptional Reporter Assay (% Max Activity)” value [2] was “++ (‘++’ = >5)”, the “Transcriptional activity on endogenous androgen-responsive genes, Class 2 resistant cell lines” value [6] was “robust transcriptional agonist activity” and the “Effect on growth inhibitory activity of R1881 in Class 1 cells” value [3] was “antagonized”. The “Ligand independent growth of Class 1 cells in presence of compound” value [3] was “unaltered”.
